How the values were obtained:
[1] = system: Raw264.7; assay: Pro-inflammatory cytokine expression in LPS-stimulated Raw264.7 cells (qRT-PCR); assay type: cell-based; settings: LNP formulation at doses equivalent to 1, 3 or 10 μM dexamethasone, 24 hours, 10 ng/mL LPS, versus control LNP
Description: (§1) The graph depicts the expression of the cytokines IL-10 (top), TNFα (middle) and IL-6 (bottom) after 24 hours of incubation of the cells with the above components at doses equivalent to 1, 3 or 10 μM of dexamethasone, followed by stimulation by 10 ng/mL LPS overnight. Cytokine levels were measured by qRT-PCR and data was normalized to cells treated with control LNP without drug-lipid conjugates.
as §1, with “IL-10” for “IL-10 (top), TNFα (middle) and IL-6 (bottom)”, “1” for “1, 3”
(§2) Cultured macrophage cell lines J774.2 (FIG. 8) and Raw264.7 (FIG. 9A) were incubated with immunostimulant LPS and LNP with or without ricinoleyl-dexamethasone conjugate INT-D034/INT-D035. After 24 hours, cells were harvested and were analyzed for expression of pro-Inflammatory cytokines IL1β, TNFα and IL-6. RNA was isolated from the cells and levels of pro-inflammatory cytokines ILIβ, TNFα and IL6 were determined by qRT-PCR.

[2] = system: J774.2; assay: Pro-inflammatory cytokine expression in LPS-stimulated macrophage cell line J774.2 (qRT-PCR); assay type: cell-based; settings: LNP formulation at doses equivalent to 1, 3 or 10 μM dexamethasone, 24 hours, 10 ng/mL LPS, versus control LNP
Description: as §1, with “IL-1β” for “IL-10”, “lipopolysaccharide (LPS)” for “LPS”
as §2

[3] = Particle size and polydispersity of LNP containing pro-drug (dynamic light scattering); assay type: physicochemical; parameters: Size of LNP: unit not given here; settings: for Particle Diameter (nm) / Polydispersity index (PDI): LNP containing 10 mol % conjugate, primary PC-lipid DMPC
Description: (§3) LNPs were prepared by dissolving 1,2-Distearoyl-sn-glycero-3-phosphocholine (DSPC) or 1,2-dimyristoyl-sn-glycero-3-phosphocholine (DMPC), cholesterol and 1,2-Distearoyl-sn-glycero-3-phosphoethanolamine-Poly(ethylene glycol) (PEG-DSPE) in ethanol. DSPC, DMPC and PEG-DSPE were purchased from Avanti Polar Lipids (Alabaster, Ala.), and cholesterol was obtained from Sigma (St Louis, Mo.).
(§4) Drug-lipid-conjugates INT-D034, INT-D035, INT-D045, INT-D046, INT-D047, INT-D048, INT-D049, INT-D050, INT-D051, INT-D053, INT-D060, INT-D061, INT-D062, INT-D063, INT-D083, INT-D085, INT-D086, INT-D088 and INT-D089 (see FIG. 3 and Example 7 for structures) were dissolved in isopropanol or THF. LNP were prepared by rapidly mixing DSPC or DMPC, cholesterol, drug-lipid conjugate, and PEG-DSPE (in molar ratio of 49/40/10/1) with phosphate-buffered saline (PBS) using a cross-junction mixer. Formulations were dialyzed against PBS to remove residual ethanol. In formulation$ with more than 10 mol % drug-lipid conjugates, the amount of phospholipid or cholesterol was reduced accordingly.
(§5) The physiochemical properties of the LNPs prepared as described above were subsequently characterized. Particle size was determined by dynamic light scattering using a Malvern Zetasizer Nano ZS (Malvern, UK) following buffer exchange into phosphate-buffered saline. Number-weighted size and distribution date was used. Lipid concentrations were determined by measuring total cholesterol using the Cholesterol E enzymatic assay kit from Wako Chemicals USA (Richmond, Va.). The morphology of LNP formulations containing LD-DEX was analyzed by cryogenic-transmission electron microscopy (cryoTEM).

[4] = Encapsulation efficiency / incorporation of pro-drug in LNP; assay type: physicochemical; settings: for Encapsulation Efficiency (%): LNP containing 10 mol % conjugate, primary PC-lipid DMPC; for % Entrapment: LNP formulations containing pro-drugs (10 mol %, FIG. 6A)
Description: as §3, §4, §5

[5] = system: CD4+ T cells; assay: Mixed lymphocyte reaction (MLR) assay, BMDCs with allogeneic CD4+ T cells; assay type: cell-based, mice; settings: LNP containing 10-99 mol % conjugate; BMDCs treated 48 hours, LPS 24 hours; 5:1 or 10:1 T-to-BMDC ratio; 3 days; flow cytometry
Description: Bone marrow derived dendritic cells (BMDCs) from C57Bl/6 male mice were first treated with LNP containing various mol % of the dexamethasone or calcitriol conjugates for 48 hours and then activated by incubation with LIPS for 24 hours. They were then harvested and mixed with CD4+ T cells isolated from Balb/cJ male mice (Jackson Laboratories) at 5:1 or 10:1 T-to-BMDC ratio.
Dexamethasone and calcitriol can tolerize antigen presenting cells (APCs). […] Bone marrow derived dendritic cells (BMDCs) from C57BI/6 male mice (Charles River) were first treated with LNP containing various mol % of dexamethasone or calcitriol conjugates for 48 hours and then activated by incubation with LPS for 24 hours. They were then harvested and mixed with CD4+ T cells isolated from Balb/cl male mice (Jackson Laboratories) at 5:1 or 10:1 T-to-BMDC ratio. The levels of T cells proliferation after 3 days were quantified using flow cytometry.

[6] = Dissociation of pro-drugs from LNP after incubation in human plasma (size exclusion chromatography, UPLC); assay type: in vitro ADME; settings: 10 mol % in LNP, 2 hours, 37° C. (FIG. 6A)
From the text: The release of ricinoleyl-dexamethasone conjugates from LNP was examined using an assay involving human plasma, which contains lipoproteins as a lipid sink for lipid exchanges to occur. The plasma lacked active esterases that may digest the ricinoleyl-dexamethasone conjugates, which would in turn prevent the detection and monitoring of intact conjugates.
LNP formulations containing 10-99 mol % INT-D034, INT-D035, INT-D045, INT-D046, INT-0047, INT-D048 or INT-D049, INT-D050, INT-D051, INT-D053, INT-D083, INT-D085, INT-D086 or INT-D089 (see FIG. 3 and Example 7 for structures) were subjected to incubation in human plasma for 0, 2 or 24 hours at 37° C. at 1.2 mM total lipid. Size exclusion chromatography was performed to separate LNP from lipoproteins (1.5×27 cm Sepharose […] size exclusion column). Thirty fractions of 2 mL were collected and three volumes of isopropanol/methanol (1:1 v/v) were added to each fraction.
Drug-lipid conjugates were quantified by ultra high pressure liquid chromatography (UPLC) using a Water® Acquity™ UPLC system equipped with a photodiode array detector (PDA); Empower™ data acquisition software version 2.0 was used (Waters, USA). […] The method was run over 6 minutes with a column temperature of 55° C. and the analyte was measured by monitoring the PDA detector at a wavelength of 239 nm.

[7] = LNP formulations containing pro-drugs (10 mol %, FIG. 6A)
[8] = LNP, pro-drug concentration 10 %
[9] = LNP, pro-drug concentration 20 %
[10] = LNP, pro-drug concentration 80 %
[11] = LNP, pro-drug concentration 90 %
[12] = LNP, pro-drug concentration 99 %
[13] = LNP, pro-drug concentration 60 %

Compound | Particle Diameter (nm) [3] [nm] | Polydispersity index (PDI) [3] | PdI [3, 7] | Size of LNP [3, 7] | Encapsulation Efficiency (%) [4] [%] | % Entrapment [4] [%] | allogeneic T-cell proliferation [5] | PdI [3, 8] | Size (nm) [3, 8] [nm] | PdI [3, 9] | Size (nm) [3, 9] [nm] | PdI [3, 10] | Size (nm) [3, 10] [nm] | PdI [3, 12] | Size (nm) [3, 12] [nm] | pro-drug remained in LNP [6] | further results
CCCCCCCC/C=C\CCCCCCCC(=O)O[C@@H](C/C=C\CCCCCCCCOC(=O)CCC(=O)OCC(=O)[C@@]1(O)[C@H](C)C[C@H]2[C@@H]3CCC4=CC(=O)C=C[C@]4(C)[C@@]3(F)[C@@H](O)C[C@@]21C)CCCCCC [INT-D035, 2-((8S,9R,10S,11S,13S,14S,16R,17R)-9-fluoro-11,17-dihydroxy-10,13,16-trimethyl-3-oxo-6,7,8,9,10,11,12,13,14,15,16,17-dodecahydro-3H-cyclopenta[a]phenanthren-17-yl)-2-oxoethyl ((R,Z)-12-(oleoyloxy)octadec-9-en-1-yl) succinate] | 67 | 0.03 | 0.11 | 64 | 100 | 99 | – | – | – | – | – | – | – | – | – | – | levels of pro-inflammatory cytokines (IL1β, TNFα, IL-6) [1]: reduced levels of pro-inflammatory cytokines in a dose-dependent manner; levels of pro-inflammatory cytokines (IL1β, TNFα, IL-6) [2]: reduced levels of pro-inflammatory cytokines in a dose-dependent manner
CCCCC/C=C\C/C=C\CCCCCCCC(=O)O[C@@H](C/C=C\CCCCCCCCOC(=O)CCC(=O)OCC(=O)[C@@]1(O)[C@H](C)C[C@H]2[C@@H]3CCC4=CC(=O)C=C[C@]4(C)[C@@]3(F)[C@@H](O)C[C@@]21C)CCCCCC [INT-D045, 2-((8S,9R,10S,11S,13S,14S,16R,17R)-9-fluoro-11,17-dihydroxy-10,13,16-trimethyl-3-oxo-6,7,8,9,10,11,12,13,14,15,16,17-dodecahydro-3H-cyclopenta[a]phenanthren-17-yl)-2-oxoethyl ((R,Z)-12-(linoleoyloxy)octadec-9-en-1-yl) succinate] | 68 | 0.03 | 0.03 | 64 | 99 | 100 | able to suppress allogeneic T-cell proliferation | 0.076 | 46 | 0.073 | 48 | 0.033 | 69 | 0.045 | 75 | – | PdI [3, 11]: 0.054; Size (nm) [3, 11]: 74 nm
(1R,3S,2)-3-hydroxy-5-(2-((1R,3aS,7aR,E)-1-((R)-6-hydroxy-6-methylheptan-2-yl)-7a-methyloctahydro-4H-inden-4-ylidene)ethylidene)-4-methylenecyclohexyl (R,Z)-12-acetoxyoctadec-9-enoate and (1S,5R,Z)-5-hydroxy-3-(2-((1R,3aS,7aR,E)-1-((R)-6-hydroxy-6-methylheptan-2-yl)-7a-methyloctahydro-4H-inden-4-ylidene)ethylidene)-2-methylenecyclohexyl(RA-12-acetoxyoctadec-9-enoate [INT-D053] | – | – | – | – | – | – | able to suppress allogeneic T-cell proliferation | 0.081 | 54 | 0.052 | 56 | 0.029 | 106 | 0.018 | 98 | – | –
CCCCCC[C@H](C/C=C\CCCCCCCCOC(=O)CCC(=O)OCC(=O)[C@@]1(O)[C@H](C)C[C@H]2[C@@H]3CCC4=CC(=O)C=C[C@]4(C)[C@@]3(F)[C@@H](O)C[C@@]21C)OC(C)=O [INT-D047, (R,Z)-12-acetoxyoctadec-9-en-1-yl (2-((8S,9R,10S,11S,13S,14S,16R,17R)-9-fluoro-11,17-dihydroxy-10,13,16-trimethyl-3-oxo-6,7,8,9,10,11,12,13,14,15,16,17-dodecahydro-3H-cyclopenta[a]phenanthren-17-yl)-2-oxoethyl) succinate] | 68 | 0.02 | 0.06 | 70 | 100 | 100 | – | – | – | – | – | – | – | – | – | ~40% | –
CCCCC/C=C\C/C=C\CCCCCCCC(=O)OC(CCCCCCCC)C(CCCCCCCC(=O)OCC(=O)[C@@]1(O)[C@H](C)C[C@H]2[C@@H]3CCC4=CC(=O)C=C[C@]4(C)[C@@]3(F)[C@@H](O)C[C@@]21C)OC(=O)CCCCCCC/C=C\C/C=C\CCCCC (stereo partly drawn) [INT-D086, 1-(2-((8S,9R,10S,11S,13S,14S,16R,17R)-9-Fluoro-11,17-dihydroxy-10,13,16-trimethyl-3-oxo-6,7,8,9,10,11,12,13,14,15,16,17-dodecahydro-3H-cyclopenta[a]phenanthren-17-yl)-2-oxoethoxy)-1-oxooctadecane-9,10-diyl (9Z,9′Z,12Z,12′4)-bis(octadeca-9,12-dienoate)] | – | – | 0.08 | 38 | – | 92 | – | 0.082 | 38 | 0.117 | 35 | 0.028 | 165 | 0.026 | 160 | over 90% | PdI [3, 13]: 0.036; Size (nm) [3, 13]: 82 nm
